# Reference: patent publication US7803930B2, “Antisense modulation of apolipoprotein B-expression” (Isis Pharmaceuticals, Inc., priority 2002, dated 2010)
# In the oligonucleotide strings, read from the 5' end, every base follows the letter of its sugar. An asterisk marks phosphorothioate; unmarked linkages are phosphodiester. Other units and linkages are bracketed, terminal groups are in braces. A string of capitals states the bases alone. e = 2'-O-(2-methoxyethyl) (MOE); [5mC] = 5-methylcytosine; d = 2'-deoxy (DNA)
# Tested on: human apolipoprotein B mRNA
# Test: Inhibition of human apolipoprotein B mRNA levels in HepG2 cells, quantitative real-time PCR
# Format: cell-based
# Conditions: for % INHIB (inhibition of human apolipoprotein B mRNA levels): HepG2 cells treated with 150 nM of compound, quantitative real-time PCR
# Outline: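 Apolipoprotein B transcript was quantified by one-step TaqMan RT-PCR, normalized to GAPDH or RiboGreen RNA, and expressed as percent inhibition against an untreated-sample standard curve. HepG2 cells were harvested 16-24 h after oligonucleotide exposure, which was delivered with 3.75 μg/mL Lipofectin over 4-7 h at 80% confluency.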
# [1] = HepG2 cells, human apolipoprotein B mRNA, oligonucleotides targeting genomic sequence SEQ ID NO 334, averages from two experiments
# [2] = Table 1, HepG2 cells, 150 nM, averages from two experiments
# [3] = Table 11 gene walk, HepG2 cells, 50 nM, averages from two experiments
# [4] = Table 11 gene walk, HepG2 cells, 150 nM, averages from two experiments
# [5] = HepG2 cells, 50 nm oligonucleotide, variable deoxy gap position
# [6] = HepG2 cells, 150 nm oligonucleotide, variable deoxy gap position
substance,measurement,setting,value
"ISIS 332770: ISIS 301012 derivative with a single thymidine to cytosine substitution in the center of the oligonucleotide (GCCTCAGTCTTCTTCGCACC; sugars from the 5' end e5 d10 e5, all phosphorothioate, methylation of C not given here)",potency relative to ISIS 301012 (fold less potent),"HepG2 cells, 50 or 150 nM, 24 hours",3 fold
301201 (antisense eA*eA*eA*eA*eT*d[5mC]*d[5mC]*dA*dT*dT*dT*dT*d[5mC]*dT*dT*eT*eA*eA*eA*eG) [compound 301201],% INHIB,[1],12%
147820 (antisense eG*eA*eA*e[5mC]*eA*d[5mC]*dA*dT*dA*dG*d[5mC]*d[5mC]*dG*dA*dA*eT*eG*e[5mC]*e[5mC]*eG) [compound 147820],% INHIB,[2],100%
same,Percent Inhibition 50 nM,"Table 2, HepG2 cells, 50 nM",10%
same,Percent Inhibition 150 nM,"Table 2, HepG2 cells, 150 nM",0%
same,Percent Inhibition 250 nM,"Table 2, HepG2 cells, 250 nM",73%
301101 (antisense eG*eG*eA*eG*eG*dT*dG*d[5mC]*dT*dA*d[5mC]*dT*dG*dT*dT*eG*eA*e[5mC]*eA*eT) [compound 301101],% INHIB,[1],42%
301131 (e[5mC]*eT*eT*eT*eT*dT*d[5mC]*dA*dG*dA*d[5mC]*dT*dA*dG*dA*eT*eA*eA*eG*eA; antisense) [compound 301131],% INHIB,[1],0%
301227 (antisense eT*eA*eT*eT*e[5mC]*dT*dG*dT*dT*dA*d[5mC]*dT*dT*dA*dA*eA*eT*e[5mC]*eA*e[5mC]) [compound 301227],% INHIB,"Table 15, HepG2 cells, 150 nM, averages from two experiments",23%
301034 (eT*eG*e[5mC]*eT*eT*dA*dT*dA*dG*dT*d[5mC]*dT*dA*d[5mC]*dT*eG*e[5mC]*e[5mC]*eT*eA; antisense) [compound 301034],% INHIB (inhibition of human apolipoprotein B mRNA levels),averages from two experiments,88%
same,% inhibition 37 nM,"Table 19 dose response, HepG2 cells, 37 nM, normalized to untreated control",73%
same,% inhibition 75 nM,"Table 19 dose response, HepG2 cells, 75 nM, normalized to untreated control",87%
same,% inhibition 150 nM,"Table 19 dose response, HepG2 cells, 150 nM, normalized to untreated control",93%
same,% inhibition 300 nM,"Table 19 dose response, HepG2 cells, 300 nM, normalized to untreated control",97%
"308663 (antisense AGTCTGCTTCGCGCCTTCTG; 8-10-2 2'-MOE gapmer, phosphorothioate, chemistry not fully specified) [compound 308663]",% INHIB 50 nm,"Table 17 variable gap, HepG2 cells, 50 nM, averages from three experiments",44%
same,% INHIB 150 nm,"Table 17 variable gap, HepG2 cells, 150 nM, averages from three experiments",84%
301147 (eA*eT*eT*eA*eT*dG*dA*dT*dA*dA*dA*dA*dT*d[5mC]*dA*eA*eT*eT*eT*eT; antisense) [compound 301147],% INHIB,[1],19%
281623 (antisense e[5mC]*e[5mC]*e[5mC]*eA*eT*d[5mC]*d[5mC]*dA*dG*dA*d[5mC]*dT*dG*dA*dA*eT*eT*eT*eT*eG) [compound 281623],% INHIB (inhibition of human apolipoprotein B mRNA levels),averages from two experiments,59%
308608 (eA*eT*eA*eT*eT*dT*dG*dA*dA*dT*dG*dT*d[5mC]*dA*dT*eG*eG*eT*eA*eG; antisense) [compound 308608],% INHIB 50 nm,[3],70%
same,% INHIB 150 nm,[4],85%
301137 (eA*eG*eT*eG*eG*dA*dA*dG*dT*dT*dT*dG*dG*dT*d[5mC]*eT*e[5mC]*eA*eT*eT; antisense) [compound 301137],% INHIB,[1],41%
271008 (antisense e[5mC]*e[5mC]*e[5mC]*eG*eG*dT*d[5mC]*dA*dG*d[5mC]*dG*dG*dA*dT*dA*eG*eT*eA*eG*eG) [compound 271008],% INHIB (inhibition of human apolipoprotein B mRNA levels),averages from two experiments,37%
301022 (eG*eG*e[5mC]*eG*eG*dG*dT*d[5mC]*d[5mC]*dA*dT*d[5mC]*dG*d[5mC]*d[5mC]*eA*eG*e[5mC]*eT*eG; antisense) [compound 301022],% INHIB (inhibition of human apolipoprotein B mRNA levels),averages from two experiments,69%
270996 (antisense e[5mC]*e[5mC]*eT*e[5mC]*eT*d[5mC]*dA*dG*d[5mC]*dT*d[5mC]*dA*dG*dT*dA*eA*e[5mC]*e[5mC]*eA*eG) [compound 270996],% INHIB (inhibition of human apolipoprotein B mRNA levels),averages from two experiments,0%
"308637 (AGGTTACCAGCCACATGCAG; 1-10-9 MOE gapmer, phosphorothioate, chemistry not fully specified) [compound 308637]",% INHIB 50 nm,[5],79%
same,% INHIB 150 nm,[6],95%
301059 (eA*eT*e[5mC]*eA*eG*dA*dG*d[5mC]*dA*d[5mC]*d[5mC]*dA*dA*dA*dG*eG*eG*eA*eA*eT; antisense) [compound 301059],% INHIB,[1],12%
147794 (antisense eG*eT*eA*eA*eT*d[5mC]*dT*dT*d[5mC]*dA*dT*d[5mC]*d[5mC]*d[5mC]*d[5mC]*eA*eG*eT*eG*e[5mC]) [compound 147794],% INHIB,[2],47%
301117 (antisense eT*eA*eG*eA*e[5mC]*dA*dA*dT*dT*dG*dA*dG*dA*d[5mC]*dT*e[5mC]*eA*eG*eA*eA) [compound 301117],% INHIB,[1],39%
301152 (e[5mC]*eT*eG*eG*eA*dT*dA*dA*d[5mC]*dT*d[5mC]*dA*dG*dA*d[5mC]*e[5mC]*eT*eT*eT*eG; antisense) [compound 301152],% INHIB,[1],40%
301167 (antisense e[5mC]*e[5mC]*eA*eA*eG*d[5mC]*d[5mC]*dT*d[5mC]*dT*dT*dT*dA*d[5mC]*dT*eG*eG*eG*e[5mC]*eT) [compound 301167],% INHIB,[1],29%
281588 (eT*e[5mC]*eT*eT*e[5mC]*dA*dG*dG*dA*dT*dG*dA*dA*dG*d[5mC]*eT*eG*e[5mC]*eA*eG; antisense) [compound 281588],% INHIB (inhibition of human apolipoprotein B mRNA levels),averages from two experiments,80%
147789 (antisense eG*eG*eA*eA*eG*dA*dG*dG*dT*dG*dT*dT*dG*d[5mC]*dT*e[5mC]*e[5mC]*eT*eT*eG) [compound 147789],% INHIB,[2],24%
"308660 (antisense TGGTAGCCTCAGTCTGCTTC; 2-10-8 2'-MOE gapmer, phosphorothioate, chemistry not fully specified) [compound 308660]",% INHIB 50 nm,[5],72%
same,% INHIB 150 nm,[6],92%
301099 (antisense eA*e[5mC]*e[5mC]*eA*e[5mC]*d[5mC]*dT*dG*dA*d[5mC]*dA*dT*d[5mC]*dA*d[5mC]*eA*eG*eG*eT*eT) [compound 301099],% INHIB,[1],24%
281604 (antisense e[5mC]*eT*eG*eA*eG*dT*dT*d[5mC]*dA*dA*dG*dA*dT*dA*dT*eT*eG*eG*e[5mC]*eA) [compound 281604],% INHIB (inhibition of human apolipoprotein B mRNA levels),averages from two experiments,78%
301156 (eT*e[5mC]*eT*eT*eT*d[5mC]*dA*dA*dA*d[5mC]*dT*dG*dG*d[5mC]*dT*eA*eG*eG*e[5mC]*eA; antisense) [compound 301156],% INHIB,[1],39%
301157 (eG*e[5mC]*e[5mC]*eT*eG*dG*d[5mC]*dA*dA*dA*dA*dT*dT*d[5mC]*dT*eG*e[5mC]*eA*eG*eG; antisense) [compound 301157],% INHIB,[1],37%
"308646 (antisense AGGTTACCAGCCACATGCAG; 4-10-6 2'-MOE gapmer, phosphorothioate, chemistry not fully specified) [compound 308646]",% INHIB 50 nm,[5],50%
same,% INHIB 150 nm,[6],76%
281618 (antisense eA*eA*eG*e[5mC]*eA*dG*dA*d[5mC]*dA*dT*d[5mC]*dT*dG*dT*dG*eG*eT*e[5mC]*e[5mC]*e[5mC]) [compound 281618],% INHIB (inhibition of human apolipoprotein B mRNA levels),averages from two experiments,90%
"308640 (AGGTTACCAGCCACATGCAG; 2-10-8 MOE gapmer, phosphorothioate, chemistry not fully specified) [compound 308640]",% INHIB 50 nm,[5],76%
same,% INHIB 150 nm,[6],96%
301146 (e[5mC]*eA*eT*eA*eG*dG*dA*dG*dT*dA*d[5mC]*dA*dT*dT*dT*eA*eT*eA*eT*eA; antisense) [compound 301146],% INHIB,[1],23%
308593 (antisense e[5mC]*eT*eT*e[5mC]*eG*d[5mC]*dA*d[5mC]*d[5mC]*dT*dT*d[5mC]*dT*dG*d[5mC]*eT*eT*eG*eA*eG) [compound 308593],% INHIB 50 nm,[3],41%
same,% INHIB 150 nm,[4],80%
271044 (e[5mC]*e[5mC]*e[5mC]*eA*eG*dT*dG*dG*dT*dG*d[5mC]*d[5mC]*dA*d[5mC]*dT*eG*eG*e[5mC]*eT*eG; antisense) [compound 271044],% INHIB (inhibition of human apolipoprotein B mRNA levels),averages from two experiments,22%
301158 (e[5mC]*eT*eA*e[5mC]*e[5mC]*dT*d[5mC]*dA*dA*dA*dT*d[5mC]*dA*dA*dT*eA*eT*eG*eT*eT; antisense) [compound 301158],% INHIB,[1],28%
301104 (antisense e[5mC]*e[5mC]*eA*eG*eA*dG*dA*dT*dG*dA*dG*d[5mC]*dA*dA*d[5mC]*eT*eT*eA*eG*eG) [compound 301104],% INHIB,[1],38%
271006 (antisense eA*eG*eT*e[5mC]*e[5mC]*dG*dG*dA*dA*dT*dG*dA*dT*dG*dA*eT*eG*e[5mC]*e[5mC]*e[5mC]) [compound 271006],% INHIB (inhibition of human apolipoprotein B mRNA levels),averages from two experiments,42%
301142 (eA*eT*eG*e[5mC]*eA*dG*d[5mC]*d[5mC]*dA*dG*dG*dA*dT*dG*dG*eG*e[5mC]*e[5mC]*eT*eA; antisense) [compound 301142],% INHIB,[1],54%
301204 (antisense eA*eG*e[5mC]*eT*e[5mC]*d[5mC]*dA*dT*dA*d[5mC]*dT*dG*dA*dA*dG*eT*e[5mC]*e[5mC]*eT*eT) [compound 301204],% INHIB,[1],37%
308619 (eG*eT*eA*eG*eG*d[5mC]*dT*d[5mC]*d[5mC]*dT*dT*dT*dT*dA*dG*eG*eT*eT*eA*e[5mC]; antisense) [compound 308619],% INHIB 50 nm,[3],69%
same,% INHIB 150 nm,[4],74%
301087 (antisense eA*e[5mC]*eA*eA*eG*dG*dA*dG*dT*d[5mC]*d[5mC]*dT*dT*dG*dT*eG*e[5mC]*eA*eG*eA) [compound 301087],% INHIB,[1],40%
